Laboratory results as given in PMC5998028, “Synthesis, antimicrobial activity and conformational analysis of the class IIa bacteriocin pediocin PA-1 and analogs thereof” (Scientific Reports, 2018).

Test: Stability of the peptide in solution (storage, handling, assays)
Details: qualitative, relative to Met31-containing pediocin PA-1 3c

For `CC[C@H](C)[C@H](NC(=O)[C@H](CS)NC(=O)[C@@H](NC(=O)[C@@H](NC(=O)[C@H](C)NC(=O)[C@H](CCCCN)NC(=O)CNC(=O)[C@H](Cc1c[nH]c2ccccc12)NC(=O)[C@H](CC(=O)O)NC(=O)[C@@H](NC(=O)[C@H](CO)NC(=O)[C@H](CS)NC(=O)[C@H](CO)NC(=O)[C@H](Cc1c[nH]cn1)NC(=O)[C@H](CCCCN)NC(=O)CNC(=O)[C@H](CS)NC(=O)[C@@H](NC(=O)[C@@H](NC(=O)CNC(=O)[C@H](CC(N)=O)NC(=O)CNC(=O)[C@H](Cc1ccc(O)cc1)NC(=O)[C@H](Cc1ccc(O)cc1)NC(=O)[C@@H](N)CCCCN)C(C)C)[C@@H](C)O)C(C)C)[C@@H](C)O)[C@@H](C)O)C(=O)N[C@H](C(=O)N[C@@H](CC(N)=O)C(=O)N[C@@H](CC(N)=O)C(=O)NCC(=O)N[C@@H](C)C(=O)N[C@@H](CC(C)C)C(=O)N[C@@H](C)C(=O)N[C@@H](Cc1c[nH]c2ccccc12)C(=O)N[C@@H](C)C(=O)N[C@H](C(=O)NCC(=O)NCC(=O)N[C@@H](Cc1c[nH]cn1)C(=O)N[C@@H](CCC(N)=O)C(=O)NCC(=O)N[C@@H](CC(N)=O)C(=O)N[C@@H](Cc1c[nH]cn1)C(=O)N[C@@H](CCCCN)C(=O)N[C@@H](CS)C(=O)O)[C@@H](C)O)[C@@H](C)CC` [compound 4], the “molecular stability / stability in solution during storage, handling and assays” value was “significantly greater”.
